Data published in ChEMBL document CHEMBL1134463 (2001).
Activity calls are given as the source filed them. No cut-off for these calls is given here.

How the values were obtained:
[1] = species: Rattus norvegicus; assay: Agonistic activity against Rat muscle Nicotinic Receptor; format: functional
[2] = biological target: Neuronal acetylcholine receptor subunit alpha-7 (Rattus norvegicus) (UniProt Q05941); assay: Agonistic activity against rat nicotinic acetylcholine receptor alpha-7 expressed in Xenopus oocytes; format: functional, cell-based; details: Oocyte
[3] = biological target: T1, Neuronal acetylcholine receptor; alpha3/beta4 (Homo sapiens) (UniProt P30926+P32297); assay: Agonistic activity against rat Alpha3 beta-4 Nicotinic Receptor expressed in Xenopus oocytes; NA=inactive; format: functional, cell-based; details: Oocyte
[4] = biological target: Neuronal acetylcholine receptor; alpha4/beta2 (Homo sapiens) (UniProt P17787+P43681); assay: Agonistic activity against rat Nicotinic acetylcholine receptor alpha4-beta2 expressed in Xenopus oocytes; NA=inactive; format: functional, cell-based; details: Oocyte
[5] = biological target: Neuronal acetylcholine receptor subunit alpha-7 (Rattus norvegicus) (UniProt Q05941); assay: Agonistic activity against rat nicotinic acetylcholine receptor alpha-7 expressed in Xenopus oocytes; NA=inactive; format: functional, cell-based; details: Oocyte
[6] = system: Neuronal acetylcholine receptor alpha4/beta2 (Rattus norvegicus); assay: Agonistic activity against rat Nicotinic acetylcholine receptor alpha4-beta2 expressed in Xenopus oocytes; details: Oocyte
[7] = system: Neuronal acetylcholine receptor alpha3/beta4 (Rattus norvegicus); assay: Agonistic activity against Alpha3 beta-4 Nicotinic receptor from Xenopus oocytes expressing recombinant nAChR from rat; details: Oocyte
[8] = biological target: T1, Neuronal acetylcholine receptor; alpha3/beta4 (Homo sapiens); assay: Agonistic activity against rat Alpha3 beta-4 Nicotinic Receptor expressed in Xenopus oocytes; format: functional, cell-based; details: Oocyte
[9] = biological target: T1, Neuronal acetylcholine receptor; alpha3/beta4 (Homo sapiens); assay: Agonistic activity against Alpha3 beta4 Nicotinic receptor from Xenopus oocytes expressing recombinant nAChR from rat; NA=inactive; format: functional, cell-based; details: Oocyte

Sequence of Neuronal acetylcholine receptor subunit alpha-7 (Rattus norvegicus) (Q05941 whole entry): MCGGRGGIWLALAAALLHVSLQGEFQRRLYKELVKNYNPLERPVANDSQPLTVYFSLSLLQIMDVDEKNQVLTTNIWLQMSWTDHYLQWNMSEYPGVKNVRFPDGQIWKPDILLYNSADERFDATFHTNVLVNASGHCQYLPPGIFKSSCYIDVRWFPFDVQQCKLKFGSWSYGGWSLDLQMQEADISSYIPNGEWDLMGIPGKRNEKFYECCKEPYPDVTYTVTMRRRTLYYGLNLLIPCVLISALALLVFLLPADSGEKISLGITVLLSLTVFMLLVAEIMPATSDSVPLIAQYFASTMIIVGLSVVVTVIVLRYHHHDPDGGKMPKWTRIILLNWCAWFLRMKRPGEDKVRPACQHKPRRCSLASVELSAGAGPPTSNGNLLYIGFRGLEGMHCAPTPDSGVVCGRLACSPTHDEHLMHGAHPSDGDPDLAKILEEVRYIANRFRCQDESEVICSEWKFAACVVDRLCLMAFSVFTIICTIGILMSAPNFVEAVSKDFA

Row | SMILES | Activity [1] [µM] | Activity [2] [µM] | Activity [5] | Activity [6] [µM] | further results
1 | CC(=O)OCC[N+](C)(C)C [ACETYLCHOLINE] | 0.1 | 50 |  |  | 
2 | CCOC(=O)N1C2CC[C@@H]1CC2c1cc(Cl)nnc1Cl (stereo not given in full) |  |  | inactive |  | Activity [3]: inactive; Activity [4]: inactive
3 | CN1C2CC[C@@H]1CC2c1ccnnc1 (stereo not given in full) | 0.2 | 25 |  | 0.013 | Activity [7]: 0.32 µM
4 | Clc1ccc(C2CC3CCC2N3)cn1 (racemic) [EPIBATIDINE] | 0.03 | 0.5 |  |  | Activity [8]: 0.005 µM
5 | c1cc(C2CC3CCC2N3)cnn1 (stereo not given) | 0.16 | 40 |  | 0.02 | Activity [7]: 0.16 µM
6 | FC(F)(F)c1cc(C2CC3CCC2N3)c(C(F)(F)F)nn1 (stereo not given) |  |  | inactive |  | Activity [4]: inactive; Activity [9]: inactive
7 | CCOC(=O)N1C2CC[C@@H]1CC2c1ccnnc1 (stereo not given in full) | >100 |  | inactive | > 100 | Activity [9]: inactive
8 | CN1CCC[C@H]1c1cccnc1.O=C(O)C(O)C(O)C(=O)O.O=C(O)C(O)C(O)C(=O)O | 6.3 | 12.6 |  |  | 
